Numbers after ± are expanded uncertainties.
Experiments:
[1] = xn = mol fraction of the nth substance listed; conditions: 298.15 K, 101.3 kPa, Liquid
[2] = Liquid; for mass density / speed of sound: 298.15 K, 101.3 kPa

SMILES: CCC(C)=O [butanone] + COC(=O)OC
- mass density ([1]; x1 = 0.0499): 1049.31 ± 0.54 kg/m3
- speed of sound ([1]; x1 = 0.0499): 1199 ± 2 m/s
- mass density ([1]; x1 = 0.0999): 1035.29 ± 0.51 kg/m3
- speed of sound ([1]; x1 = 0.0999): 1198 ± 2 m/s
- mass density ([1]; x1 = 0.1994): 1007.79 ± 0.47 kg/m3
- speed of sound ([1]; x1 = 0.1994): 1196 ± 2 m/s
- mass density ([1]; x1 = 0.2996): 980.5 ± 0.44 kg/m3
- speed of sound ([1]; x1 = 0.2996): 1194 ± 2 m/s
- mass density ([1]; x1 = 0.3986): 953.88 ± 0.42 kg/m3
- speed of sound ([1]; x1 = 0.3986): 1192 ± 2 m/s
- mass density ([1]; x1 = 0.5027): 926.3 ± 0.41 kg/m3
- speed of sound ([1]; x1 = 0.5027): 1191 ± 2 m/s
- mass density ([1]; x1 = 0.6014): 900.51 ± 0.38 kg/m3
- speed of sound ([1]; x1 = 0.6014): 1190 ± 2 m/s
- mass density ([1]; x1 = 0.7102): 872.49 ± 0.36 kg/m3
- speed of sound ([1]; x1 = 0.7102): 1190 ± 2 m/s
- mass density ([1]; x1 = 0.8038): 848.69 ± 0.35 kg/m3
- speed of sound ([1]; x1 = 0.8038): 1191 ± 2 m/s
- mass density ([1]; x1 = 0.9043): 823.48 ± 0.35 kg/m3
- speed of sound ([1]; x1 = 0.9043): 1191 ± 2 m/s
- mass density ([1]; x1 = 0.9514): 811.75 ± 0.35 kg/m3
- speed of sound ([1]; x1 = 0.9514): 1191 ± 2 m/s
- mass density ([1]; x1 = 1): 799.7 ± 0.35 kg/m3
- speed of sound ([1]; x1 = 1): 1192 ± 2 m/s

SMILES: COC(=O)OC [dimethyl carbonate] + CCCC(C)=O
- mass density ([1]; x2 = 0): 1063.33 ± 0.56 kg/m3
- speed of sound ([1]; x2 = 0): 1198 ± 2 m/s

SMILES: COC(=O)OC [dimethyl carbonate] + CCC(C)=O
- mass density ([1]; x2 = 0): 1063.33 ± 0.56 kg/m3
- speed of sound ([1]; x2 = 0): 1198 ± 2 m/s

SMILES: CC(C)=O [acetone]
- mass density [2]: 784.37 ± 0.31 kg/m3
- speed of sound [2]: 1162 ± 2 m/s
- Normal boiling temperature [2]: 56.12 ± 0.13 °C

SMILES: COC(=O)OC [dimethyl carbonate]
- mass density [2]: 1063.33 ± 0.56 kg/m3
- speed of sound [2]: 1198 ± 2 m/s
- Normal boiling temperature [2]: 90.31 ± 0.13 °C

SMILES: CCC(C)=O [butanone]
- mass density [2]: 799.7 ± 0.35 kg/m3
- speed of sound [2]: 1192 ± 2 m/s
- Normal boiling temperature [2]: 79.63 ± 0.13 °C

SMILES: COC(=O)OC [dimethyl carbonate] + CC(C)=O
- mass density ([1]; x2 = 0): 1063.33 ± 0.56 kg/m3
- speed of sound ([1]; x2 = 0): 1198 ± 2 m/s
- mass density ([1]; x2 = 0.0447): 1052.64 ± 0.53 kg/m3
- speed of sound ([1]; x2 = 0.0447): 1196 ± 2 m/s
- mass density ([1]; x2 = 0.0906): 1041.54 ± 0.51 kg/m3
- speed of sound ([1]; x2 = 0.0906): 1195 ± 2 m/s
- mass density ([1]; x2 = 0.1886): 1017.22 ± 0.45 kg/m3
- speed of sound ([1]; x2 = 0.1886): 1192 ± 2 m/s
- mass density ([1]; x2 = 0.2886): 991.68 ± 0.4 kg/m3
- speed of sound ([1]; x2 = 0.2886): 1188 ± 2 m/s
- mass density ([1]; x2 = 0.3941): 963.86 ± 0.37 kg/m3
- speed of sound ([1]; x2 = 0.3941): 1184 ± 2 m/s
- mass density ([1]; x2 = 0.4933): 936.83 ± 0.35 kg/m3
- speed of sound ([1]; x2 = 0.4933): 1180 ± 2 m/s
- mass density ([1]; x2 = 0.5988): 907.17 ± 0.32 kg/m3
- speed of sound ([1]; x2 = 0.5988): 1176 ± 2 m/s
- mass density ([1]; x2 = 0.7021): 877.06 ± 0.3 kg/m3
- speed of sound ([1]; x2 = 0.7021): 1172 ± 2 m/s
- mass density ([1]; x2 = 0.7974): 848.41 ± 0.29 kg/m3
- speed of sound ([1]; x2 = 0.7974): 1168 ± 2 m/s
- mass density ([1]; x2 = 0.9053): 814.88 ± 0.29 kg/m3
- speed of sound ([1]; x2 = 0.9053): 1165 ± 2 m/s
- mass density ([1]; x2 = 0.9534): 799.51 ± 0.3 kg/m3
- speed of sound ([1]; x2 = 0.9534): 1163 ± 2 m/s

SMILES: CC(C)=O [acetone] + COC(=O)OC
- mass density ([1]; x1 = 1): 784.37 ± 0.31 kg/m3
- speed of sound ([1]; x1 = 1): 1162 ± 2 m/s

SMILES: CCCC(C)=O [pentan-2-one]
- mass density [2]: 801.39 ± 0.35 kg/m3
- speed of sound [2]: 1212 ± 2 m/s
- Normal boiling temperature [2]: 102.21 ± 0.13 °C

SMILES: CCCC(C)=O [pentan-2-one] + COC(=O)OC
- mass density ([1]; x1 = 0.0498): 1046.71 ± 0.53 kg/m3
- speed of sound ([1]; x1 = 0.0498): 1199 ± 2 m/s
- mass density ([1]; x1 = 0.1004): 1030.33 ± 0.51 kg/m3
- speed of sound ([1]; x1 = 0.1004): 1198 ± 2 m/s
- mass density ([1]; x1 = 0.1996): 999.49 ± 0.47 kg/m3
- speed of sound ([1]; x1 = 0.1996): 1197 ± 2 m/s
- mass density ([1]; x1 = 0.3009): 969.77 ± 0.44 kg/m3
- speed of sound ([1]; x1 = 0.3009): 1198 ± 2 m/s
- mass density ([1]; x1 = 0.398): 942.67 ± 0.42 kg/m3
- speed of sound ([1]; x1 = 0.398): 1198 ± 2 m/s
- mass density ([1]; x1 = 0.5036): 914.75 ± 0.41 kg/m3
- speed of sound ([1]; x1 = 0.5036): 1200 ± 2 m/s
- mass density ([1]; x1 = 0.6017): 890.1 ± 0.38 kg/m3
- speed of sound ([1]; x1 = 0.6017): 1201 ± 2 m/s
- mass density ([1]; x1 = 0.7046): 865.52 ± 0.36 kg/m3
- speed of sound ([1]; x1 = 0.7046): 1203 ± 2 m/s
- mass density ([1]; x1 = 0.8012): 843.59 ± 0.35 kg/m3
- speed of sound ([1]; x1 = 0.8012): 1206 ± 2 m/s
- mass density ([1]; x1 = 0.901): 821.94 ± 0.35 kg/m3
- speed of sound ([1]; x1 = 0.901): 1209 ± 2 m/s
- mass density ([1]; x1 = 0.9504): 811.55 ± 0.35 kg/m3
- speed of sound ([1]; x1 = 0.9504): 1211 ± 2 m/s
- mass density ([1]; x1 = 1): 801.39 ± 0.35 kg/m3
- speed of sound ([1]; x1 = 1): 1212 ± 2 m/s
